Test results published in patent US20200255838A1, “Selenium Cancer Therapy” (University of Massachusetts, priority 2017, published 2020).

Columns and labels:
Type in all cases: cell-based
[1] = system: MDAMB468 and MDAMB231 cell lines; experiment: Hydrogen selenide gas toxicity assay; details: gas from sodium selenide in 10% hydrochloric acid, 96-well plate
Description: We developed a novel gas toxicity assay in which hydrogen selenide was produced in one well of a 96-well plate and the toxic effects were measured in an adjacent well. As described, SEPHS2 KO or control KO was achieved via pLENTICRISPR lentiviral transduction, and then cells were subjected to hydrogen selenide gas toxicity. Hydrogen selenide gas was formed by dissolving sodium selenide in an acidic (10% Hydrochloric Acid) solution in the central wells of a 96-well culture plate. SEPHS2 KO and CTRL cells (for MDAMB468 and MDAMB231 cell lines) were pre-seeded at various distances from the source of hydrogen gas toxicity (distances were equal under both conditions). The viability of each set of cells was averaged and relative viability of the SEPHS2 KO cells relative to control KO cells for each cell line are shown in FIG. 8.

GPX4 and SEPHS2 = experiment: Selenoprotein expression after selenite supplementation of media; details: selenite supplemented to media
U251 cells = experiment: Selenite toxicity / growth in KO cells
Description: FIGS. 2A-D provide evidence that SEPHS2 plays a detoxifying role in U251 GBM cell line. (A) Knockdown of either SEPHS2 or SEPSECS can block selenoprotein expression. (B) However, only SEPHS2 KO has significant toxicity. (C) Model for ‘pushing’ toxicity in which if SEPHS2 plays a detoxifying role, its KO should synergize with increased selenited input. (D) Synergy is indeed seen with 12 uM selenite treatment in conjunction with SEPHS2 KO. Growth is normalized to the already lower growth rate of the SEPHS2 KO cells, thus the bars in asterisks indicate (statistically significant) synergy.
We had classified SEPHS2 as a putative detoxifier as its substrate, selenide, is the most toxic form of selenium^12. The notion of SEPHS2 as a detoxifier has not 1 0 previously been explored, and SEPHS2 is simply known for its enzymatic role (which cannot be replaced by its isoform, SEPHS1^13) as an intermediate step in producing selenocysteine for selenocysteinyl-tRNA production. The selenocysteine producing pathway is a simple and linear pathway starting from dietary selenite—or selenite or other inorganic forms which can be converted to selenite, selenite being the most common form^14,15. Selenite is imported and converted through in an unclear manner to form selenide, which is then metabolized by SEPHS2 to form selenophosphate, accompanied by ATP hydrolysis. […]

Row | Structure (SMILES) | Viability of SEPHS2 KO cells relative to control KO cells under hydrogen selenide gas [1] | Expression of selenoproteins GPX4 and SEPHS2 (GPX4 and SEPHS2) | Growth with selenite in conjunction with SEPHS2 KO (U251 cells; 12 uM selenite, U251, growth normalized to SEPHS2 KO cells) | Toxicity of high-dose selenite in SLC7A11 KO cells (U251 cells; 12 μM selenite, U251 cells, both guides against SLC7A11)
1 | [SeH2] [hydrogen selenide gas, hydrogen selenide] | hypersensitive |  |  | 
2 | O=[Se](O)O [selenite] |  | increased expression | Synergy | complete rescue
